Data reported in US10294202B2, “Pyrrolidinones as herbicides” (FMC Corporation, priority 2013, dated 2019).

Tests used:
[1] = test system: lambsquarters; experiment: Test C pre-/postemergence herbicide test; assay type: in vivo, Chenopodium album
How it was run: (§1)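 Greenhouse pots; formulation = non-phytotoxic solvent mix + surfactant. PRE onto seeds in loam:sand; POST at 1–4 leaves (2–18 cm) in peat moss/vermiculite medium. Read-out: visual % control vs untreated, day 13–15.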

[2] = test system: rice; experiment: Test B flooded paddy test; assay type: in vivo, Oryza sativa; conditions: 500 g ai/ha, Flood; scale of 0 to 100 where 0 is no effect and 100 is complete control
How it was run: (§2)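 Treatment was made at the 2-leaf stage by dosing the standing floodwater, kept 3 cm above soil level for the whole test. Greenhouse exposure lasted 13 to 15 days. Response is a visual percent rating relative to controls, where a dash indicates no test result.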

[3] = test system: ragweed; experiment: Test C pre-/postemergence herbicide test; assay type: in vivo, Ambrosia elatior
How it was run: as §1

[4] = test system: wheat (winter wheat); experiment: Test C pre-/postemergence herbicide test; assay type: in vivo, Triticum aestivum
How it was run: as §1

[5] = test system: corn; experiment: Test A pre-/postemergence herbicide test; assay type: in vivo, Zea mays; conditions: Postemergence
How it was run: (§3)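 Greenhouse pot test with pre- and postemergence application of surfactant-containing solvent formulations. Postemergence plants were 2–10 cm, one- to two-leaf stage. Response scored visually after ~10 days, 0 (no effect) to 100 (complete control).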

[6] = test system: crabgrass, large; experiment: Test C pre-/postemergence herbicide test; assay type: in vivo, Digitaria sanguinalis
How it was run: as §1

[7] = test system: oat, wild; experiment: Test C pre-/postemergence herbicide test; assay type: in vivo, Avena fatua; conditions: Postemergence
How it was run: as §1

[8] = test system: pigweed; experiment: Test C pre-/postemergence herbicide test; assay type: in vivo, Amaranthus retroflexus
How it was run: as §1

[9] = test system: ducksalad; experiment: Test B flooded paddy test; assay type: in vivo, Heteranthera limosa; conditions: 500 g ai/ha, Flood; scale of 0 to 100 where 0 is no effect and 100 is complete control
How it was run: as §2

[10] = test system: johnsongrass; experiment: Test C pre-/postemergence herbicide test; assay type: in vivo, Sorghum halepense
How it was run: as §1

[11] = test system: giant foxtail; experiment: Test A pre-/postemergence herbicide test; assay type: in vivo, Setaria faberii; conditions: for Plant response rating, Foxtail, Giant: 0 to 100 scale
How it was run: as §3

[12] = test system: sedge, umbrella; experiment: Test B flooded paddy test; assay type: in vivo, Cyperus difformis; conditions: 500 g ai/ha, Flood; scale of 0 to 100 where 0 is no effect and 100 is complete control
How it was run: as §2

[13] = Postemergence, 31 g ai/ha, scale 0 to 100 (0 no effect, 100 complete control)
[14] = Postemergence, 62 g ai/ha, scale 0 (no effect) to 100 (complete control)
[15] = Postemergence, 125 g ai/ha, scale 0 to 100 (0 no effect, 100 complete control)
[16] = Postemergence, 250 g ai/ha, scale 0 to 100 (0 no effect, 100 complete control)
[17] = Preemergence, 31 g ai/ha, scale 0 to 100, 0 is no effect and 100 is complete control
[18] = Preemergence, 62 g ai/ha, scale 0 to 100 (0 no effect, 100 complete control)
[19] = Preemergence, 125 g ai/ha, scale 0 to 100 (0 no effect, 100 complete control)

O=C1NCC(c2cccc(OC(F)F)c2)C1C(=O)Nc1cccc(F)c1F (stereo not shown) [Compound 224]
20: Plant response rating, Ragweed [3, 13]
85: Plant response rating (scale of 0 to 100), Pigweed ([8]; Preemergence, 250 g ai/ha) | Plant response rating (scale of 0 to 100), Johnsongrass ([10]; Preemergence, 250 g ai/ha)
60: Plant response rating, Lambsquarters [1, 16] | Plant response rating, Corn ([5]; 125 g ai/ha, 0 to 100 scale, 0 is no effect, 100 is complete control) | Plant response rating, Pigweed [8, 15] | Plant response rating, Pigweed [8, 19]
80: Plant response rating, Ragweed [3, 16] | Corn plant response rating (0 to 100 scale, 0 is no effect, 100 is complete control) ([5]; 500 g ai/ha) | Plant response rating, Foxtail, Giant ([11]; Postemergence, 125 g ai/ha, 0 is no effect, 100 is complete control) | Foxtail, Giant plant response rating (0 to 100 scale, 0 is no effect, 100 is complete control) ([11]; Postemergence, 500 g ai/ha)
70: Plant response rating, Lambsquarters [1, 15]
25: Pigweed plant response rating [8, 18] | Plant response rating, Johnsongrass [10, 16]
50: Plant response rating, Lambsquarters [1, 14]
90: Crabgrass, Large plant response rating [6, 17] | Crabgrass, Large plant response rating [6, 18] | Plant response rating, Crabgrass, Large [6, 19] | Plant response rating, Foxtail, Giant ([11]; 125 g ai/ha, visual rating, 0 no effect, 100 complete control, approximately 10 days, preemergence) | Plant response rating, Foxtail, Giant ([11]; preemergence, 500 g ai/ha, 0 is no effect and 100 is complete control)
10: Ragweed plant response rating [3, 17]
35: Plant response rating, Crabgrass, Large [6, 14] | Johnsongrass plant response rating [10, 18]
75: Plant response rating, Crabgrass, Large [6, 16] | Plant response rating, Johnsongrass [10, 19]
40: Ragweed plant response rating [3, 18] | Plant response rating, Pigweed [8, 13]
95: Plant response rating, Lambsquarters [1, 19] | Plant response rating (scale of 0 to 100), Lambsquarters ([1]; Preemergence, 250 g ai/ha)
15: Plant response rating, Oat, Wild ([7]; 250 g ai/ha, scale 0 to 100 (0 no effect, 100 complete control)) | Plant response rating, Johnsongrass [10, 15]
45: Plant response rating, Ragweed [3, 15] | Plant response rating (scale of 0 to 100), Wheat ([4]; Preemergence, 250 g ai/ha)
5: Plant response rating, Lambsquarters [1, 13] | Plant response rating, Wheat [4, 15] | Plant response rating, Wheat [4, 16] | Plant response rating, Oat, Wild ([7]; 125 g ai/ha, scale 0 to 100 (0 no effect, 100 complete control))
100: Plant response rating, Ragweed [3, 19] | Plant response rating (scale of 0 to 100), Ragweed ([3]; Preemergence, 250 g ai/ha) | Plant response rating (scale of 0 to 100), Crabgrass, Large ([6]; Preemergence, 250 g ai/ha) | Plant response rating, Ducksalad [9]
55: Lambsquarters plant response rating [1, 17] | Plant response rating, Crabgrass, Large [6, 15] | Plant response rating, Pigweed [8, 14]
0: Plant response rating, Rice [2] | Plant response rating, Wheat [4, 13] | Plant response rating, Wheat [4, 14] | Wheat plant response rating [4, 17] | Wheat plant response rating [4, 18] | Plant response rating, Wheat [4, 19] | Plant response rating, Crabgrass, Large [6, 13] | Plant response rating, Oat, Wild ([7]; 31 g ai/ha, scale 0 to 100 (0 no effect, 100 complete control)) | Plant response rating, Oat, Wild ([7]; 62 g ai/ha, scale 0 (no effect) to 100 (complete control)) | Pigweed plant response rating [8, 17] | Plant response rating, Johnsongrass [10, 13] | Plant response rating, Johnsongrass [10, 14] | Johnsongrass plant response rating [10, 17] | Plant response rating, Sedge, Umbrella [12]
65: Lambsquarters plant response rating [1, 18] | Plant response rating, Ragweed [3, 14] | Plant response rating, Pigweed [8, 16]
